Experimental findings from ChEMBL document CHEMBL5356978 (Bioorg Med Chem Lett, 2024) are described below.

The target of series [1] is T1, beta-catenin-B-cell lymphoma 9 protein complex (Homo sapiens, UniProt P35222).
T1 sequence (P35222 whole entry): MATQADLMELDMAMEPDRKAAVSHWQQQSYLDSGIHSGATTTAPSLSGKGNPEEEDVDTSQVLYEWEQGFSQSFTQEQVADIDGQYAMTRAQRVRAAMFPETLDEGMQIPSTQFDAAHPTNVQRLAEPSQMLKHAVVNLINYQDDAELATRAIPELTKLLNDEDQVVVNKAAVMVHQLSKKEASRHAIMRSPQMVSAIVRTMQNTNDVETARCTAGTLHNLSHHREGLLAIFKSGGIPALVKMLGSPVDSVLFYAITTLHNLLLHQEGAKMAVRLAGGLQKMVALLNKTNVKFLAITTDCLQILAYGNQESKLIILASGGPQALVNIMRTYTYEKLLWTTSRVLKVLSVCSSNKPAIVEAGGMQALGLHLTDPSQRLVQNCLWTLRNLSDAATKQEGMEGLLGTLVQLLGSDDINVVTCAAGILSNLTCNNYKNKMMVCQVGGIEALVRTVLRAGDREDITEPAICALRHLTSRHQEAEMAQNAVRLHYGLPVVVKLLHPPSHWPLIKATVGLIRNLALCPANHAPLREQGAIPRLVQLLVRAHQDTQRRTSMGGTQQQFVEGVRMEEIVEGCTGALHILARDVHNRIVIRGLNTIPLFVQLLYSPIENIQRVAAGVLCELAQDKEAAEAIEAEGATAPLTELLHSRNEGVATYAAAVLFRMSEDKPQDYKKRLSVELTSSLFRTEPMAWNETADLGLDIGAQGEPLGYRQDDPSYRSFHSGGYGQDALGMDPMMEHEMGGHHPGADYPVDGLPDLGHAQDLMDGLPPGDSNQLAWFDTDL
T1 sequence (O00512 whole entry): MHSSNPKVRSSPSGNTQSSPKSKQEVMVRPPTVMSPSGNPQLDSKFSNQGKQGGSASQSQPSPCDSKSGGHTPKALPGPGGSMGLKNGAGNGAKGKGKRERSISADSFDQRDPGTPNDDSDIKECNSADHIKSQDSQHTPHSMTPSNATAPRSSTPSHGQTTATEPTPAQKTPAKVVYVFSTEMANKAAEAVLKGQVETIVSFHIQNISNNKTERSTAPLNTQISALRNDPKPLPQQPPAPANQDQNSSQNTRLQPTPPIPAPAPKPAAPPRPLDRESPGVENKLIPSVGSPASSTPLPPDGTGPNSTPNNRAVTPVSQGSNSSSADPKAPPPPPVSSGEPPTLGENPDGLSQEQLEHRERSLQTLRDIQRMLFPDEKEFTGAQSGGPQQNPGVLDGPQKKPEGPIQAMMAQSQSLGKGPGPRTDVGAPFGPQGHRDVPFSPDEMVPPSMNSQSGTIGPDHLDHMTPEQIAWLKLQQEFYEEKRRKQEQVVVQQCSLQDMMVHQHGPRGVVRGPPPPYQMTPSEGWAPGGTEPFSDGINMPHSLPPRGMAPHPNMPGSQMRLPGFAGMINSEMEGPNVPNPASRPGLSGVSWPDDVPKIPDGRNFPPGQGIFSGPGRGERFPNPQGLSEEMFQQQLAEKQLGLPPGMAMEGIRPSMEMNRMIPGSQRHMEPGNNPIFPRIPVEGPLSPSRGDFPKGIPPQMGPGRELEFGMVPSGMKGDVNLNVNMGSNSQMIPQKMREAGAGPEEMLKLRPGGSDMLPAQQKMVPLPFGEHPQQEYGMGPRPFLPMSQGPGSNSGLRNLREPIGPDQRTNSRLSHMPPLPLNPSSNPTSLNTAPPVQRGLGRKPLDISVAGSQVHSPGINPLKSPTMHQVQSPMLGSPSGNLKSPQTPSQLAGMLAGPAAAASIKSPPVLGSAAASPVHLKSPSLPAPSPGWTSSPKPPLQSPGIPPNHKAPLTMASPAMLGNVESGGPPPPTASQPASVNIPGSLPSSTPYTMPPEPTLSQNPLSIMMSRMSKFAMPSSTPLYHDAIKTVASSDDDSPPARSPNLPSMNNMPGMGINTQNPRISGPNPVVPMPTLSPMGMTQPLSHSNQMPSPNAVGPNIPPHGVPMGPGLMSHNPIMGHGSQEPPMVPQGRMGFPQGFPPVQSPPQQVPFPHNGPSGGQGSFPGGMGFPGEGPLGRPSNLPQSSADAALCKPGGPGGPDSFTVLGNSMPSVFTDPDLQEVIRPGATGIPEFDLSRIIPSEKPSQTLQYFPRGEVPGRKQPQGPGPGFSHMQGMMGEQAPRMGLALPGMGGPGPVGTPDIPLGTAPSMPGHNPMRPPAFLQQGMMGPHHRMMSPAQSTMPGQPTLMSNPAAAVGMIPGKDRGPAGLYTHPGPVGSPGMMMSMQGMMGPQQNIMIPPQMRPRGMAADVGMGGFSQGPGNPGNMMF
Briefly: Inhibition of full length beta-catenin (unknown origin)/FAM labeled BCL9 (350 to 375 residues) (unknown origin) protein-protein interaction by competitive FP assay. In kind it is protein-complex assay.

A short description of series [2]: Inhibition of Wnt/beta-catenin signaling pathway in mouse CT26 cells assessed as downregulation of AXIN2 expression incubated for 24 hrs by qPCR analysis. To be noted: CT26, 24 h.
Series [3] deals with CT26. Briefly: Antiproliferative activity against mouse CT26 cells harboring active Wnt/beta-catenin signal assessed as inhibition of cell proliferation by CCK8 assay.
Series [4] concerns HCT-116. The experiment in a line: Antiproliferative activity against human HCT-116 cells assessed as inhibition of cell proliferation by CCK8 assay.
A short description of series [5]: Inhibition of Wnt/beta-catenin signaling transactivation in human HCT-116 cells assessed as reduction in downstream nuclear transcription ability by TCF/LEF reporter assay.
Series [6] deals with CT26. Briefly: Induction of apoptosis in mouse CT26 cells at 5 uM incubated for 24 hrs by annexin V-FITC/PI staining based flow cytometry analysis relative to control. The format is functional.
For series [7], the system named is CT26. Briefly: Induction of apoptosis in mouse CT26 cells at 20 uM incubated for 24 hrs by annexin V-FITC/PI staining based flow cytometry analysis relative to control. In kind it is functional.
For series [8], the system named is CT26. Briefly: Antimigratory activity in mouse CT26 cells assessed as reduction in cell migration incubated for 24 hrs by transwell assay. The format is functional, cell-based. The note with it: dose 5-20 µM.
Series [9] concerns CT26. The experiment in a line: Antitumor activity against mouse CT26 cells implanted in mouse assessed as tumor growth inhibition at 15 mg/kg, ip administered for 7 days relative to control. To be noted: CT26, 168 h, time 7 day, read-out: TGI. The format is functional.
Series [10] is described as follows: Toxicity in mouse implanted with mouse CT26 cells assessed as reduction in body weight at 15 mg/kg, ip administered for 7 days and measured for 11 days. The note with it: in vivo, 168 h, time 7 day. In kind it is organism-based.
Series [11] in a line: cells. To be noted: Homo sapiens, HCT-116, 24 h.
Description: Inhibition of Wnt pathway in human HCT-116 cells assessed as inhibition of Auxin2 expression incubated for 24 hrs by qPCR analysis
Series [12] concerns CT26. The experiment in a line: Induction of apoptosis in mouse CT26 cells assessed as increase in late apoptotic cells at 5 to 20 uM incubated for 24 hrs by annexin V-FITC/PI staining based flow cytometry analysis. In kind it is functional, cell-based. The note with it: dose 5-20 µM.
Series [13] can be described thus: […] Colorectal cancer cells (unknown origin) assessed as regulation of immune microenvironment by measuring granzyme B positive cells at 5 to 10 uM incubated for 24 hrs by flow cytometry analysis (reference value: 16.2%). The format is functional. Further details: scale not given: the % may be the effect or the level left. The note with it: dose 5-10 µM.

For series [14], the system named is CT26. The experiment in a line: Antitumor activity against mouse CT26 cells implanted in mouse assessed as reduction in tumor size at 15 mg/kg, ip administered for 7 days. In kind it is functional, organism-based. The note with it: time 7.0 day.

The source made the active and inactive calls. The calls are words filed in the database; no cut-off is given here.

On to `COc1ccc(-c2oc3c(-c4ccc(C(=O)O)cc4)c(OC)cc(OC)c3c(=O)c2OC)cc1OC`, for which the IC50 in series [1] came to 4.52 µM; in [2], 10.4 µM; in series [3] it was 14.1 µM.

For `COc1ccc(-c2oc3c(-c4ccncc4)c(OC)cc(OC)c3c(=O)c2OC)cc1OC`, the figures for the IC50 in [1], in series [2] and in [3] were 2.75 µM, 3.1 µM and 14.2 µM, respectively.

Consider `COc1ccc(-c2oc3c(C4CC4)c(OC)cc(OC)c3c(=O)c2OC)cc1OC`, for which the IC50 was 20 µM in series [1], 2.04 µM in series [2] and 3.39 µM in series [3].

Regarding `COC(=O)c1ccc(-c2c(O)cc(O)c3c(=O)c(O)c(-c4ccc(O)c(O)c4)oc23)cc1`, the IC50 in [1] was 2.99 µM; in series [2], 5.05 µM; in series [3], 15.1 µM.

On to `COc1ccc(-c2oc3c(-c4ccc(C)cc4)c(OC)cc(OC)c3c(=O)c2OC)cc1OC`, for which the IC50 in series [1] came to 5.24 µM; in series [2], 1.97 µM; in [3], 11.4 µM.

For `COc1ccc(-c2oc3c(-c4ccc(C(F)(F)F)cc4)c(OC)cc(OC)c3c(=O)c2OC)cc1OC`, the IC50 in series [1] amounted to 8.81 µM; in series [2], 9.2 µM; in [3] it was 16.2 µM.

Turning to `O=c1c(O)c(-c2ccc(O)c(O)c2)oc2c(-c3ccc(F)cc3)c(O)cc(O)c12`, the values for the IC50 in series [1], in series [2] and in series [3] were 2.35 µM, 0.8 µM and 3.32 µM, respectively.

In the case of `O=c1c(O)c(-c2ccc(O)c(O)c2)oc2cc(O)cc(O)c12` [QUERCETIN], the IC50 was 7.7 µM in [2], 11.4 µM in series [4], 4.87 µM in series [5] and 9.95 µM in [11]. For the same molecule, the Activity in series [6] is 17.36%; in [7] it was 23.89%; in series [8] it was “Dose-Dependent Effect”; in series [10] it was “Non-Toxic”. Further, in series [9], the inhibition in vivo at 15 mg/kg was found to be 43.1%.

Consider `COc1ccc(-c2oc3c(-c4ccc(F)cc4)c(OC)cc(OC)c3c(=O)c2OC)cc1OC`, for which the IC50 came out at 6.93 µM in [1], 4.57 µM in series [2] and 19.8 µM in series [3].

As for `COc1ccc(-c2oc3c(Nc4ccccc4)c(OC)cc(OC)c3c(=O)c2OC)cc1OC`, the results for the IC50 in series [1], in series [2] and in series [3] were 16.2 µM, 1.09 µM and 2.49 µM, respectively.

Turning to `COc1ccc(-c2c(OC)cc(OC)c3c(=O)c(OC)c(-c4ccc(OC)c(OC)c4)oc23)cc1`, the figures for the IC50 in [1], in series [2] and in [3] were 17.3 µM, 1.14 µM and 27.8 µM, respectively.

With `O=c1c(O)c(-c2ccc(O)c(O)c2)oc2c(-c3ccc(F)c(F)c3)c(O)cc(O)c12`, the IC50 in series [1] was 3.15 µM; in [2], 1.45 µM; in [3], 7.1 µM.

For the molecule `COc1ccc(-c2oc3c(-c4ccccc4)c(OC)cc(OC)c3c(=O)c2OC)cc1OC`, the IC50 came out at 12.1 µM in series [1], 1.11 µM in series [2] and 15.1 µM in [3].

In the case of `O=c1c(O)c(-c2ccc(O)c(O)c2)oc2c(-c3ccccc3)c(O)cc(O)c12`, the IC50 in [1] turned out to be 3.83 µM; in [2] it was 1.31 µM; in series [3], 3.32 µM.

Turning to `COC(=O)c1ccc(-c2c(OC)cc(OC)c3c(=O)c(OC)c(-c4ccc(OC)c(OC)c4)oc23)cc1`, the IC50 in [1] is 7.64 µM; in [2] it was 12 µM; in series [3], 16 µM.

In the case of `Cc1ccc(-c2c(O)cc(O)c3c(=O)c(O)c(-c4ccc(O)c(O)c4)oc23)cc1`, the IC50 was 0.76 µM in series [2]; 1.69 µM in [3]; 1.7 µM in [4]; 0.76 µM in series [5]; 4.02 µM in [11]. For the same molecule, the Activity in series [6] is 29.11%; in [7] it was 34.03%; in [8], “Dose-Dependent Effect”; in [13], 44.5%; in [10], “Non-Toxic”. The result in series [12] and in series [14] was Active. For the same molecule, in series [9], the inhibition in vivo at 15 mg/kg is 76%.

Consider `COc1ccc(-c2oc3c(C4=CCNCC4)c(OC)cc(OC)c3c(=O)c2OC)cc1OC`, for which the IC50 in [1] is 8.92 µM; in series [2], 1.06 µM; in series [3] it was 12.9 µM.

On to `COc1ccc(-c2oc3c(-c4ccc(F)c(F)c4)c(OC)cc(OC)c3c(=O)c2OC)cc1OC`, for which the values for the IC50 in series [1], in series [2] and in [3] were 5.78 µM, 12 µM and 32.1 µM, respectively.
